Measured values as given in US8802597B2, “Herbicidal pyrimidines” (E I du Pont de Nemours and Company, priority 2003, dated 2014).

What was measured:
Assay type in all cases: in vivo
[1] = tested on: umbrella sedge (Cyperus difformis); test: Test B flooded paddy test; details: Flood, 1000 g ai/ha; scale 0 to 100
Procedure, shortened: (§1)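 Rice, umbrella sedge, duck salad and barnyardgrass grown to 2-leaf stage under flooded paddy conditions and treated with formulated test chemicals. Kept in greenhouse 13–15 days, then visually rated against untreated controls on a 0–100 scale (0 no effect, 100 complete control).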

rice (Oryza sativa) = test: Test B flooded paddy test; details: Flood, 1000 g ai/ha; scale 0 to 100
Procedure, shortened: as §1

[2] = tested on: duck salad (Heteranthera limosa); test: Test B flooded paddy test; details: Flood, 1000 g ai/ha; scale 0 to 100
Procedure, shortened: as §1

[3] = tested on: barnyardgrass (Echinochloa crus-galli); test: Test B flooded paddy test; details: Flood, 1000 g ai/ha; scale 0 (no effect) to 100 (complete control)
Procedure, shortened: as §1

wild oat (Avena fatua) = test: Test B postemergence
Procedure, shortened: (§2)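 Following sowing, compounds in a surfactant-bearing non-phytotoxic solvent were applied preemergence; emerged plants 2 to 18 cm high got postemergence treatment concurrently. Evaluation: 13 to 15 days later, greenhouse, 0–100 visual scale.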

[4] = tested on: blackgrass (Alopecurus myosuroides); test: Test B postemergence
Procedure, shortened: as §2

[5] = tested on: velvetleaf (Abutilon theophrasti); test: Test B pre/postemergence
Procedure, shortened: as §2

[6] = tested on: crabgrass (Digitaria sanguinalis); test: Test B pre/postemergence
Procedure, shortened: as §2

[7] = tested on: Surinam grass (Brachiaria decumbens); test: Test B pre/postemergence; details: for Surinam Grass plant response rating: scale 0 to 100 (0 no effect, 100 complete control)
Procedure, shortened: as §2

[8] = tested on: pigweed (Amaranthus retroflexus); test: Test B pre/postemergence
Procedure, shortened: as §2

[9] = tested on: wheat (Triticum aestivum); test: Test B pre/postemergence
Procedure, shortened: as §2

[10] = tested on: barnyardgrass (Echinochloa crus-galli); test: Test B pre/postemergence
Procedure, shortened: as §2

[11] = tested on: lambsquarters (Chenopodium album); test: Test B pre/postemergence
Procedure, shortened: as §2

corn (Zea mays) = test: Test B pre/postemergence
Procedure, shortened: as §2

[12] = tested on: morningglory (Ipomoea coccinea); test: Test B pre/postemergence
Procedure, shortened: as §2

[13] = tested on: cocklebur (Xanthium strumarium); test: Test B pre/postemergence
Procedure, shortened: as §2

[14] = tested on: giant foxtail (Setaria faberii); test: Test B pre/postemergence
Procedure, shortened: as §2

[15] = 125 g ai/ha, scale 0 to 100 (0 no effect, 100 complete control)
[16] = Postemergence, 125 g ai/ha, scale 0 to 100 (0 no effect, 100 complete control)
[17] = Postemergence, 500 g ai/ha, scale 0 to 100
[18] = Preemergence, 125 g ai/ha, scale 0 to 100 (0 no effect, 100 complete control)
[19] = Preemergence, 500 g ai/ha, scale 0 to 100 (0 no effect, 100 complete control)

COC(=O)c1nc(C2CC2C)nc(N)c1Br (stereo not drawn) [Compound 28]
70: Velvetleaf plant response rating [5, 16] | Plant response rating, Crabgrass [6, 18]
100: Lambsquarters plant response rating [11, 19] | Plant response rating, Cocklebur [13, 17]
40: Wheat plant response rating [9, 19] | Plant response rating, Foxtail, Giant [14, 17]
90: Plant response rating, Velvetleaf [5, 17] | Velvetleaf plant response rating [5, 19] | Plant response rating, Pigweed [8, 17] | Pigweed plant response rating [8, 19] | Lambsquarters plant response rating [11, 16] | Plant response rating, Lambsquarters [11, 17] | Morningglory plant response rating [12, 16] | Plant response rating, Morningglory [12, 17] | Morningglory plant response rating [12, 19] | Cocklebur plant response rating [13, 16] | Cocklebur plant response rating [13, 19]
0: Plant response rating, Sedge, Umbrella [1] | Plant response rating, Rice (rice (Oryza sativa)) | Plant response rating, Barnyardgrass [3] | Oat, Wild plant response rating (wild oat (Avena fatua); [15]) | Wheat plant response rating [9, 16] | Corn plant response rating (corn (Zea mays); [16]) | Plant response rating, Corn (corn (Zea mays); [17]) | Plant response rating, Corn (corn (Zea mays); [18]) | Corn plant response rating (corn (Zea mays); [19])
10: Plant response rating, Oat, Wild (wild oat (Avena fatua); 500 g ai/ha, scale 0 to 100) | Blackgrass plant response rating [4, 15] | Surinam Grass plant response rating ([7]; Postemergence, 125 g ai/ha) | Plant response rating, Wheat [9, 17] | Plant response rating, Wheat [9, 18] | Plant response rating, Barnyardgrass [10, 18]
30: Plant response rating, Ducksalad [2] | Plant response rating, Blackgrass ([4]; 500 g ai/ha, scale 0 to 100) | Crabgrass plant response rating [6, 16] | Barnyardgrass plant response rating [10, 19] | Plant response rating, Foxtail, Giant [14, 18]
60: Surinam Grass plant response rating ([7]; Preemergence, 500 g ai/ha)
50: Plant response rating, Crabgrass [6, 17] | Plant response rating, Surinam Grass [7, 17] | Plant response rating, Barnyardgrass [10, 17] | Foxtail, Giant plant response rating [14, 19]
20: Barnyardgrass plant response rating [10, 16] | Foxtail, Giant plant response rating [14, 16]
80: Plant response rating, Velvetleaf [5, 18] | Crabgrass plant response rating [6, 19] | Pigweed plant response rating [8, 16] | Plant response rating, Pigweed [8, 18] | Plant response rating, Lambsquarters [11, 18] | Plant response rating, Morningglory [12, 18] | Plant response rating, Cocklebur [13, 18]
